In US6225307A, “Viral treatment” (priority 2000, dated 2001):

Tests used:
HIV-1 cell line, CEMSKI = assay: Long term in vitro study, CEMSKI cells, reverse transcriptase analysis; assay type: cell-based; settings: for Reverse transcriptase data: 7 μg/ml
Procedure: A microtiter-based reveres transcriptase (RT) reaction is utilized (Buckheit et al (1991) AIDS Research and Human Retroviruses 7:295-302). Tritiated thymidine triphosphate (NEN)(TTP) is resuspended in distilled water at 5 Ci/ml. Poly rA and oligo dT are prepared as a stock solution which is kept at -20° C. The RT reaction buffer is prepared fresh on a daily basis and consists of 125 μl 1M EGTA, 125 μl water, 125 μl Triton X-100, 50 μl Tris (pH 7.4), 50 μl MDDT, and 40 μl 1M MgCl2. These three solutions are mixed together in a ratio of 1 part TTP, 2.5 parts poly rA:oligo dT, 2.5 parts reaction buffer and 4 parts distilled water. Ten microliters of this reaction mixture is placed in a round bottom microtiter place and 15 μl of virus containing supernatant is added and mixed. The plate is incubated at 37° C. and incubated for 60 minutes. Following reaction, the reaction volume is spotted onto filter mats, washed 6 times for 5 minutes each in a 5% sodium phosphate buffer, 2 times for 1 minute each in distilled water, 2 times for 1 minute each in 70% ethanol, and then dried. The dried filter mat is placed in a plastic sample bag, Betaplate scintillation fluid is added and the bag is heat sealed. Incorporated radioactivity is quantified utilizing a Wallac Microbeta scintillation counter.
Acute infection of most established human cell lines with HIV- I results in the eventual establishment of a constitutive virus-producing chronically infected cell line. The cells can be passaged for long periods of time in culture without loss of virus production. These cells may be utilized to evaluate the effects of anti-HIV compounds on syncytium formation or to evaluate the effects of anti-HIV compounds on levels of virus production from these cells. […] Each of the cells contains an integrated HIV genome or provirus. […]
CEM-SS cells chronically infected with HIV isolate, for example SKI (CEM-SKI) are cultured in RPM1640 tissue culture medium supplemented with 10% fetal bovine serum and antibiotics. […] After a period of time, usually one week intervals of drug treatment, cells are evaluated to determine if the inhibitory activity of the compound has been affected by treatment of the cells with either compounds. […]
The cell populations contain integrated copies of the HIV genome and constitutively produce HIV at relatively high levels or are latently infected and only produce virus after stimulation with phorbol esters, tumor necrosis factor or IL6(U1 and ACH2). Reductions in virus products were observed when quantifying supernatant reverse transcriptase activity,
Toxicity Values are measured by XTT and activity of the compound in the tests is measured by a Reverse Transcriptase analysis. […]

HIV-1 integrase = HIV-1 integrase (Human immunodeficiency virus type 1 group M subtype B, UniProt P12497); assay: Integrase inhibition assay; assay type: biochemical
From the text: A biochemical integrase assay described by Craigie et at (HIV, vol. 2: A practical Approach) Biochemistry, Molecular Biology and Drug Discovery Ed. J. Karn 1995) to screen agents for their ability to inhibit HIV-1 integrase. In this system, a kinased oligonucleotide serves as the target of 3' processing and the subsequent strand transfer reaction. The 3' processing reaction involves the removal of 2 nucleotides from the 31 ends of the substrate and this is followed by the strand transfer reaction in which the 3' ends are joined to the exposed 5' ends. The 20 μl reaction mixture contains 25 mM MOPS (pH 7.2), […] BSA, 10 mM , β-mercaptoethanol, 10% glycerol, 7.5 mM MnCl2, 25 nM (7 ng) substrate (Oligo's Etc., Wilsonville, Ore.) and 200 nM (128 ng) integrase (NIAID AIDS Research and Reference Reagent Program, Bethesda, Md.). The reaction proceeds at 37° C. for 1-2 hours and is terminated by the addition of 20 μl of sequencing stop solution (USB Amersham, Arlington Heights, Ill.). The reaction products are visualized by autoradiography following electrophoresis in 15% polyacrylamide 6M Urea gel. The substrate migrates as a 30 mer, the product of 3' processing migrates as an N-2 band and the strand transfer products migrate more slowly at various sizes larger than the substrate.

CCC1(c2cccc(OC(=O)Nc3ccc(Cl)cc3)c2)CCCCN(C)C1=O (stereo not shown) [(4-chlorophenyl)-carbamic acid, 3-(hexahydro-3-ethyl-1-methyl-2-oxo-1H-azepin-3-yl) 2 phenyl ester]
Reverse transcriptase data (HIV-1 cell line, CEMSKI; Day 4): 8474
Reverse transcriptase data (HIV-1 cell line, CEMSKI; Day 11): 7217
Reverse transcriptase data (HIV-1 cell line, CEMSKI; Day 18): 9141
Reverse transcriptase data, continued test (HIV-1 cell line, CEMSKI; run through 222 days): data remained consistent
IC50 (HIV-1 integrase): > 249 µM
activity as an integrase inhibitor (HIV-1 integrase): did not show activity
HIV-1 integrase inhibition, mean (HIV-1 integrase; 0.1 μg/ml): 9908
HIV-1 integrase inhibition, sample 1 (HIV-1 integrase; 0.1 μg/ml): 10151.6
HIV-1 integrase inhibition, sample 2 (HIV-1 integrase; 0.1 μg/ml): 9664.3
remaining activity at 0.1 µg/mL (HIV-1 integrase; 0.1 μg/ml, read-out: % no drug control): 104%
HIV-1 integrase inhibition, mean (HIV-1 integrase; 1 μg/ml): 10075
HIV-1 integrase inhibition, sample 1 (HIV-1 integrase; 1 μg/ml): 9644.6
HIV-1 integrase inhibition, sample 2 (HIV-1 integrase; 1 μg/ml): 10505.5
remaining activity at 1 µg/mL (HIV-1 integrase; 1 μg/ml, read-out: % no drug control): 105%
HIV-1 integrase inhibition, mean (HIV-1 integrase; 10 μg/ml): 10097
HIV-1 integrase inhibition, sample 1 (HIV-1 integrase; 10 μg/ml): 10964.5
HIV-1 integrase inhibition, sample 2 (HIV-1 integrase; 10 μg/ml): 1129.7
remaining activity at 10 µg/mL (HIV-1 integrase; 10 μg/ml, read-out: % no drug control): 116%
HIV-1 integrase inhibition, mean (HIV-1 integrase; 100 μg/ml): 10942
HIV-1 integrase inhibition, sample 1 (HIV-1 integrase; 100 μg/ml): 9648.5
HIV-1 integrase inhibition, sample 2 (HIV-1 integrase; 100 μg/ml): 12235.7
remaining activity at 100 µg/mL (HIV-1 integrase; 100 μg/ml, read-out: % no drug control): 114%
